What was measured:
Type in all cases: functional
NCI-H23 = test: Growth inhibition of human NCI-H23 cells measured after 48 hrs by SRB assay
Malme-3M = test: Growth inhibition of human Malme-3M cells measured after 48 hrs by SRB assay
K562 = test: Growth inhibition of human K562 cells measured after 48 hrs by SRB assay
OVCAR-3 = test: Growth inhibition of human OVCAR-3 cells measured after 48 hrs by SRB assay
SK-OV-3 = test: Growth inhibition of human SK-OV-3 cells measured after 48 hrs by SRB assay
SF-268 = test: Growth inhibition of human SF-268 cells measured after 48 hrs by SRB assay
IGROV-1 = test: Growth inhibition of human IGROV-1 cells measured after 48 hrs by SRB assay
A549 = test: Growth inhibition of human A549 cells measured after 48 hrs by SRB assay
SNB-19 = test: Growth inhibition of human SNB-19 cells measured after 48 hrs by SRB assay
M14 = test: Growth inhibition of human M14 cells measured after 48 hrs by SRB assay
HT-29 = test: Growth inhibition of human HT-29 cells measured after 48 hrs by SRB assay
UACC-257 = test: Growth inhibition of human UACC-257 cells measured after 48 hrs by SRB assay
MDA-MB-231 = test: Growth inhibition of human MDA-MB-231 cells measured after 48 hrs by SRB assay
UACC-62 = test: Growth inhibition of human UACC-62 cells measured after 48 hrs by SRB assay
NCI/ADR-RES = test: Growth inhibition of human NCI/ADR-RES cells measured after 48 hrs by SRB assay
U-251 = test: Growth inhibition of human U-251 cells measured after 48 hrs by SRB assay
SK-MEL-2 = test: Growth inhibition of human SK-MEL-2 cells measured after 48 hrs by SRB assay
SN12C = test: Growth inhibition of human SN12C cells measured after 48 hrs by SRB assay
NCI-H322M = test: Growth inhibition of human NCI-H322M cells measured after 48 hrs by SRB assay
UO-31 = test: Growth inhibition of human UO-31 cells measured after 48 hrs by SRB assay
HL-60 = test: Growth inhibition of human HL-60 cells measured after 48 hrs by SRB assay
HCT-15 = test: Growth inhibition of human HCT-15 cells measured after 48 hrs by SRB assay
CCRF-CEM = test: Growth inhibition of human CCRF-CEM cells measured after 48 hrs by SRB assay
MDA-MB-435 = test: Growth inhibition of human MDA-MB-435 cells measured after 48 hrs by SRB assay
MDA-MB-468 = test: Growth inhibition of human MDA-MB-468 cells measured after 48 hrs by SRB assay
SF-295 = test: Growth inhibition of human SF-295 cells measured after 48 hrs by SRB assay
DU-145 = test: Growth inhibition of human DU-145 cells measured after 48 hrs by SRB assay
OVCAR-8 = test: Growth inhibition of human OVCAR-8 cells measured after 48 hrs by SRB assay
SNB-75 = test: Growth inhibition of human SNB-75 cells measured after 48 hrs by SRB assay
SR = test: Growth inhibition of human SR cells measured after 48 hrs by SRB assay
COLO 205 = test: Growth inhibition of human COLO 205 cells measured after 48 hrs by SRB assay
MCF7 = test: Growth inhibition of human MCF7 cells measured after 48 hrs by SRB assay
NCI-H522 = test: Growth inhibition of human NCI-H522 cells measured after 48 hrs by SRB assay
CAKI-1 = test: Growth inhibition of human CAKI-1 cells measured after 48 hrs by SRB assay
HOP-92 = test: Growth inhibition of human HOP-92 cells measured after 48 hrs by SRB assay
HCT-116 = test: Growth inhibition of human HCT-116 cells measured after 48 hrs by SRB assay
BT-549 = test: Growth inhibition of human BT-549 cells measured after 48 hrs by SRB assay
RXF 393 = test: Growth inhibition of human RXF 393 cells measured after 48 hrs by SRB assay
NCI-H460 = test: Growth inhibition of human NCI-H460 cells measured after 48 hrs by SRB assay
TK-10 = test: Growth inhibition of human TK-10 cells measured after 48 hrs by SRB assay
786-0 = test: Growth inhibition of human 786-0 cells measured after 48 hrs by SRB assay
SF-539 = test: Growth inhibition of human SF-539 cells measured after 48 hrs by SRB assay
PC-3 = test: Growth inhibition of human PC-3 cells measured after 48 hrs by SRB assay
HCC 2998 = test: Growth inhibition of human HCC 2998 cells measured after 48 hrs by SRB assay
A498 = test: Growth inhibition of human A498 cells measured after 48 hrs by SRB assay
T47D = test: Growth inhibition of human T47D cells measured after 48 hrs by SRB assay
NCI-H226 = test: Growth inhibition of human NCI-H226 cells measured after 48 hrs by SRB assay
SW-620 = test: Growth inhibition of human SW-620 cells measured after 48 hrs by SRB assay
OVCAR-5 = test: Growth inhibition of human OVCAR-5 cells measured after 48 hrs by SRB assay
SK-MEL-28 = test: Growth inhibition of human SK-MEL-28 cells measured after 48 hrs by SRB assay
Hs-578T = test: Growth inhibition of human Hs-578T cells measured after 48 hrs by SRB assay
SK-MEL-5 = test: Growth inhibition of human SK-MEL-5 cells measured after 48 hrs by SRB assay
KM12 = test: Growth inhibition of human KM12 cells measured after 48 hrs by SRB assay
MOLT-4 = test: Growth inhibition of human MOLT-4 cells measured after 48 hrs by SRB assay
HOP-62 = test: Growth inhibition of human HOP-62 cells measured after 48 hrs by SRB assay
LOX IMVI = test: Growth inhibition of human LOX IMVI cells measured after 48 hrs by SRB assay
ACHN = test: Growth inhibition of human ACHN cells measured after 48 hrs by SRB assay
RPMI-8226 = test: Growth inhibition of human RPMI-8226 cells measured after 48 hrs by SRB assay

C[C@]12CC[C@H]3[C@@H](CC[C@H]4C[C@@H](O)CC[C@@]43C=O)[C@@]1(O)CC[C@@H]2c1ccc(=O)oc1
GI50 (NCI-H23): 1710 nM
GI50 (Malme-3M): 3470 nM
GI50 (K562): 4280 nM
GI50 (OVCAR-3): 1710 nM
GI50 (SK-OV-3): 5630 nM
GI50 (SF-268): 1070 nM
GI50 (IGROV-1): 5060 nM
GI50 (A549): 562 nM
GI50 (SNB-19): 6410 nM
GI50 (M14): 4140 nM
GI50 (HT-29): 2700 nM
GI50 (UACC-257): 4500 nM
GI50 (MDA-MB-231): 14100 nM
GI50 (UACC-62): 3200 nM
GI50 (NCI/ADR-RES): 1490 nM
GI50 (U-251): 4470 nM
GI50 (SK-MEL-2): 4300 nM
GI50 (SN12C): 877 nM
GI50 (NCI-H322M): 3120 nM
GI50 (UO-31): 1600 nM
GI50 (HL-60): 3410 nM
GI50 (HCT-15): 2150 nM
GI50 (CCRF-CEM): 1070 nM
GI50 (MDA-MB-435): 3500 nM
GI50 (MDA-MB-468): 8230 nM
GI50 (SF-295): 1980 nM
GI50 (DU-145): 1180 nM
GI50 (OVCAR-8): 2830 nM
GI50 (SNB-75): 3180 nM
GI50 (SR): 2030 nM
GI50 (COLO 205): 6520 nM
GI50 (MCF7): 990 nM
GI50 (NCI-H522): 694 nM
GI50 (CAKI-1): 1500 nM
GI50 (HOP-92): 3220 nM
GI50 (HCT-116): 633 nM
GI50 (BT-549): 1730 nM
GI50 (RXF 393): 418 nM
GI50 (NCI-H460): 556 nM
GI50 (TK-10): 2580 nM
GI50 (786-0): 1760 nM
GI50 (SF-539): 1470 nM
GI50 (PC-3): 3530 nM
GI50 (HCC 2998): 8740 nM
GI50 (A498): 1130 nM
GI50 (T47D): 4740 nM
GI50 (NCI-H226): 6870 nM
GI50 (SW-620): 1340 nM
GI50 (OVCAR-5): 5210 nM
GI50 (SK-MEL-28): 6050 nM
GI50 (Hs-578T): 739 nM
GI50 (SK-MEL-5): 2350 nM
GI50 (KM12): 6250 nM
GI50 (MOLT-4): 665 nM
GI50 (HOP-62): 1100 nM
GI50 (LOX IMVI): 2370 nM
GI50 (ACHN): 502 nM

CCO[C@H]1C=C2CC[C@@H]3[C@H]([C@@H](O)C[C@]4(C)[C@@H](c5ccc(=O)oc5)CC[C@]34O)[C@@]2(C)CC1
GI50 (NCI-H23): 1360 nM
GI50 (Malme-3M): 1800 nM
GI50 (K562): 1270 nM
GI50 (OVCAR-3): 618 nM
GI50 (SK-OV-3): 1910 nM
GI50 (SF-268): 471 nM
GI50 (IGROV-1): 1840 nM
GI50 (A549): 434 nM
GI50 (SNB-19): 2350 nM
GI50 (M14): 1930 nM
GI50 (UACC-257): 1890 nM
GI50 (MDA-MB-231): > 5750 nM
GI50 (UACC-62): 1270 nM
GI50 (NCI/ADR-RES): 1610 nM
GI50 (SK-MEL-2): 1200 nM
GI50 (SN12C): 905 nM
GI50 (NCI-H322M): 1400 nM
GI50 (UO-31): 940 nM
GI50 (HL-60): 649 nM
GI50 (HCT-15): 1800 nM
GI50 (CCRF-CEM): 233 nM
GI50 (MDA-MB-435): 1400 nM
GI50 (MDA-MB-468): > 550 nM
GI50 (SF-295): 1200 nM
GI50 (DU-145): 423 nM
GI50 (OVCAR-8): 1670 nM
GI50 (SNB-75): 1060 nM
GI50 (SR): 418 nM
GI50 (COLO 205): 4220 nM
GI50 (MCF7): 1520 nM
GI50 (NCI-H522): 252 nM
GI50 (CAKI-1): 1150 nM
GI50 (HOP-92): 757 nM
GI50 (HCT-116): 716 nM
GI50 (BT-549): 946 nM
GI50 (RXF 393): 709 nM
GI50 (NCI-H460): 247 nM
GI50 (TK-10): 1300 nM
GI50 (786-0): 927 nM
GI50 (SF-539): 968 nM
GI50 (RPMI-8226): 1450 nM
GI50 (PC-3): 839 nM
GI50 (HCC 2998): 4510 nM
GI50 (A498): 460 nM
GI50 (T47D): 2170 nM
GI50 (NCI-H226): 1770 nM
GI50 (SW-620): 911 nM
GI50 (OVCAR-5): 2030 nM
GI50 (SK-MEL-28): 1660 nM
GI50 (Hs-578T): 369 nM
GI50 (SK-MEL-5): 1360 nM
GI50 (KM12): 2200 nM
GI50 (MOLT-4): 189 nM
GI50 (HOP-62): 974 nM
GI50 (LOX IMVI): 1800 nM
GI50 (ACHN): 251 nM

C[C@]12CC[C@@H](O)C=C1CC[C@@H]1[C@@H]2[C@@H](O)C[C@]2(C)[C@@H](c3ccc(=O)oc3)CC[C@]12O
GI50 (NCI-H23): 2230 nM
GI50 (Malme-3M): 4350 nM
GI50 (K562): 644 nM
GI50 (OVCAR-3): 739 nM
GI50 (SK-OV-3): 4240 nM
GI50 (SF-268): 656 nM
GI50 (IGROV-1): 3690 nM
GI50 (A549): 649 nM
GI50 (SNB-19): 4970 nM
GI50 (M14): 3380 nM
GI50 (UACC-257): 3450 nM
GI50 (MDA-MB-231): 8500 nM
GI50 (UACC-62): 3310 nM
GI50 (NCI/ADR-RES): 2230 nM
GI50 (SK-MEL-2): 3060 nM
GI50 (SN12C): 1070 nM
GI50 (NCI-H322M): 2880 nM
GI50 (UO-31): 2150 nM
GI50 (HL-60): 273 nM
GI50 (HCT-15): 4110 nM
GI50 (CCRF-CEM): 502 nM
GI50 (MDA-MB-435): 3350 nM
GI50 (MDA-MB-468): 10200 nM
GI50 (SF-295): 1750 nM
GI50 (DU-145): 760 nM
GI50 (OVCAR-8): 2110 nM
GI50 (SNB-75): 2170 nM
GI50 (SR): 189 nM
GI50 (COLO 205): 6050 nM
GI50 (MCF7): 3530 nM
GI50 (NCI-H522): 639 nM
GI50 (CAKI-1): 2470 nM
GI50 (HOP-92): 2100 nM
GI50 (HCT-116): 532 nM
GI50 (BT-549): 658 nM
GI50 (RXF 393): 412 nM
GI50 (NCI-H460): 573 nM
GI50 (TK-10): 2980 nM
GI50 (786-0): 998 nM
GI50 (SF-539): 1490 nM
GI50 (RPMI-8226): 2540 nM
GI50 (PC-3): 1880 nM
GI50 (HCC 2998): 7850 nM
GI50 (A498): 1770 nM
GI50 (T47D): 4710 nM
GI50 (NCI-H226): 7560 nM
GI50 (SW-620): 1690 nM
GI50 (OVCAR-5): 2840 nM
GI50 (SK-MEL-28): 3470 nM
GI50 (Hs-578T): 831 nM
GI50 (SK-MEL-5): 3030 nM
GI50 (KM12): 5000 nM
GI50 (MOLT-4): 303 nM
GI50 (HOP-62): 1550 nM
GI50 (LOX IMVI): 3690 nM
GI50 (ACHN): 475 nM
